Assay results as given in US12458650B2, “Urination disorder-improving agent” (ASKA Pharmaceutical Co., Ltd., priority 2019, dated 2025).

Test system: urination disorder model associated with diabetes
Test: Test Example 4: urination disorder model associated with streptozocin-induced diabetes (cystometry, tissue weights, blood glucose, nomogram)
Format: in vivo, rat
Details: for Prostate, Dorsolateral prostate weight / Prostate, Ventral prostate weight: average ± SD; for Dorsolateral prostate (atrophy rate) / Seminal vesicle (atrophy rate) / Ventral prostate (atrophy rate) / Whole prostate (atrophy rate): relative to solvent group; for bladder contraction force on urination by nomogram analysis: in comparison with solvent group, FIG. 17
Description: As described below, as a urination disorder model, a urination disorder model associated with diabetes was prepared to evaluate the urination disorder. This model has no benign prostatic hyperplasia and is a model of a urination disorder associated with neuropathy and smooth muscle contraction disorder.
The body weights of rats (male, Crl:CD(SD), 5-week-old; Charles River Laboratories Japan, Inc.) were measured. After the rats were fasted overnight, the blood was collected from the caudal vein to measure the fasting blood glucose. On the basis of the body weight and the tasting blood glucose level, the rats were grouped or divided into two (2) groups by randomized, multivariable block allocation. The day after the rats were grouped, a first group received intraperitoneal administration of a citrate buffer (pH 4.5) (10 mL/kg) having a concentration of 0.1 mmol/L, and a second group received intraperitoneal administration of streptozocin (STZ; Sigma-Aldrich) (50 mg/kg). Streptozocin (STZ) was administered in the form of a solution of streptozocin having a concentration of 5 mg/mL in the citrate buffer.
About one (1) week after streptozocin (STZ) was administered, the body weight and the fasting blood glucose were measured. In the streptozocin (STZ) administration group (the second group), individuals having a fasting blood glucose level of not less than 300 mg/dL were used as animals with induced diabetes. These animals with induced diabetes are a model having no abnormality of the prostate (having no benign prostatic hyperplasia). On the basis of the body weight and the fasting blood glucose level, the animals (models) with induced diabetes were grouped or divided into three (3) groups by randomized, multivariable block allocation.
To the three model groups with induced diabetes, a 0.5 v/v % Polysorbate 80 solution (0.5% P) (10 mL/kg), the compound A (3 mg/kg), and the compound A (10 mg/kg) were orally administered, respectively, wherein the administration schedule in all groups was a frequency of once a day, only on weekdays, over four (4) weeks. Moreover, to the above-mentioned first group, a 0.5 v/v % Polysorbate 80 solution (0.5% P) (10 mL/kg) was orally administered in the same administration schedule (normal group). On the last day of administration, a cannula was inserted into and secured to the dome of the bladder under isoflurane anesthesia, and cystometry (Cystometogram, CMG) was conducted in the order of under awake condition and under urethane anesthesia to measure the intravesical pressure, the voided volume, and the residual urine volume. After the completion of the measurement, the blood was collected under deep isoflurane anesthesia, and then the prostate (ventral prostate, dorsolateral prostate), the seminal vesicle, the bladder, and the kidney were extracted and were each weighed. Moreover, the blood glucose level in the collected blood was measured.
The test substances and the dosage in the test system (rats having the urination disorder associated with diabetes) are as follows. • Normal group: citrate buffer 10 mL/kg (intraperitoneal administration), 0.5% P 10 mL/kg (oral administration) (n=10) • Solvent group (control group): STZ 50 mg/kg (intraperitoneal administration), 0.5% P 10 mL/kg (oral administration) (n=10) • Group A3: STZ 50 mg/kg (intraperitoneal administration), Compound A 3 mg/kg (oral administration) (n=10) • Group A10: STZ 50 mg/kg (intraperitoneal administration), Compound A 10 mg/kg (oral administration) (n=9) Urination Parameter:
The resulting data of the intravesical pressure, the voided volume, and the residual urine volume were analyzed, and the bladder capacity (mL), the residual urine volume (mL), and the urination efficiency (%) were determined as urination parameters in each urination. With respect to these urination parameters, the average value of two measurements was calculated and was taken as a measured value of each individual. […]

[1] = Group A3: 3 mg/kg oral, 4 weeks
[2] = Group A10: 10 mg/kg oral, 4 weeks

**Q.** Which “Prostate, Dorsolateral prostate weight” value [1] does the source give for CC(=O)O[C@]1(C(C)=O)C[C@@H](O)[C@H]2[C@@H]3C=C(Cl)C4=CC(=O)OC[C@]4(C)[C@H]3CC[C@@]21C [Compound A, 17α-acetoxy-6-chloro-15β-hydroxy-2-oxa-4,6-pregnadiene-3,20-dione] here?
**A.** The value was 35.3 ± 7.8 mg/100 g body weight.

**Q.** What about the “Prostate, Ventral prostate weight” value (Group A3: 3 mg/kg oral, 4 weeks, male STZ rats) of the same molecule?
**A.** Its value is 62.2 ± 11.4 mg/100 g body weight.

**Q.** What about the “Dorsolateral prostate (atrophy rate)” value [1] of the same molecule?
**A.** Its value is “(44.2%)”.

**Q.** What about the “Seminal vesicle (atrophy rate)” value [1] of the same molecule?
**A.** Its value is “(41.8%)”.

**Q.** What about the “Ventral prostate (atrophy rate)” value [1] of the same molecule?
**A.** Its value is “(43.0%)”.

**Q.** And the “Whole prostate (atrophy rate)” value [1]?
**A.** Its value is “(43.4%)”.

**Q.** What about the urination efficiency (Group A3: 3 mg/kg, cystometry under anesthesia, FIG. 16) of the same molecule?
**A.** Its urination efficiency is “improved”.

**Q.** What about the “bladder contraction force on urination by nomogram analysis” value (Group A3: 3 mg/kg, cystometry under anesthesia) of the same molecule?
**A.** The value was “strong bladder contraction force”.

**Q.** And the residual urine volume (Group A3: 3 mg/kg, cystometry under anesthesia, vs solvent group, FIG. 15)?
**A.** The residual urine volume was “significantly decreased”.

**Q.** And the bladder capacity (Group A3: 3 mg/kg, cystometry under awake condition, vs solvent group, FIG. 11)?
**A.** The bladder capacity was “significantly reduced”.

**Q.** What about the residual urine volume (Group A3: 3 mg/kg, cystometry under awake condition, vs solvent group, FIG. 12) of the same molecule?
**A.** The residual urine volume was “significantly reduced”.

**Q.** And the urination efficiency (Group A3: 3 mg/kg, cystometry under awake condition, vs solvent group, FIG. 13)?
**A.** The urination efficiency was “improved”.

**Q.** What about the “therapeutic effect on diabetes (blood glucose level relative to the solvent group)” value (Group A3 and Group A10: 3 and 10 mg/kg oral, 4 weeks) of the same molecule?
**A.** Its value is “no therapeutic effect on diabetes”.

**Q.** What about the “Prostate, Dorsolateral prostate weight” value [2] of the same molecule?
**A.** Its value is 28.8 ± 6.1 mg/100 g body weight.

**Q.** And the “Prostate, Ventral prostate weight” value [2]?
**A.** The value was 53.1 ± 13.5 mg/100 g body weight.

**Q.** What about the “Dorsolateral prostate (atrophy rate)” value [2] of the same molecule?
**A.** Its value is “(54.5%)”.

**Q.** What about the “Seminal vesicle (atrophy rate)” value [2] of the same molecule?
**A.** Its value is “(50.2%)”.

**Q.** And the “Ventral prostate (atrophy rate)” value [2]?
**A.** The value was “(51.3%)”.

**Q.** What about the “Whole prostate (atrophy rate)” value [2] of the same molecule?
**A.** Its value is “(52.5%)”.

**Q.** What about the urination efficiency (Group A10: 10 mg/kg, cystometry under anesthesia, FIG. 16) of the same molecule?
**A.** The urination efficiency was “improved”.

**Q.** What about the bladder capacity (Group A10: 10 mg/kg, cystometry under anesthesia, P=0.0336, FIG. 14) of the same molecule?
**A.** The bladder capacity was “reduced”.

**Q.** What about the “bladder contraction force on urination by nomogram analysis” value (Group A10: 10 mg/kg, cystometry under anesthesia) of the same molecule?
**A.** Its value is “strong bladder contraction force”.

**Q.** What about the residual urine volume (Group A10: 10 mg/kg, cystometry under anesthesia, vs solvent group, FIG. 15) of the same molecule?
**A.** Its residual urine volume is “significantly decreased”.

**Q.** And the bladder capacity (Group A10: 10 mg/kg, cystometry under awake condition, vs solvent group, FIG. 11)?
**A.** Its bladder capacity is “significantly reduced”.

**Q.** And the residual urine volume (Group A10: 10 mg/kg, cystometry under awake condition, vs solvent group, FIG. 12)?
**A.** The residual urine volume was “significantly reduced”.

**Q.** What about the urination efficiency (Group A10: 10 mg/kg, cystometry under awake condition, vs solvent group, P=0.0359, FIG. 13) of the same molecule?
**A.** Its urination efficiency is “significantly improved”.
